Patent publication US8338426B2, “Piperazinyl derivatives useful as modulators of the neuropeptide Y2 receptor” (Janssen Pharmaceutica NV, priority 2007, dated 2012)

Key:
[1] = system: ethanol-induced hyperactivity; assay: Ethanol-induced hyperactivity (locomotor activity) in c57bl6/j mice; assay type: in vivo; conditions: 10 mg/kg i.p.
Text: C57bl6/j mice readily self-administer ethanol and these mice are sensitive to the stimulant effects of alcohol. NPY immunoreactivity is reduced in these mice. In addition, mice lacking NPY drink more ethanol than wild type mice; whereas, mice over-expressing NPY have reduced preference for ethanol. Experiments were designed to test the hypothesis that selective blockade of Y2 receptors by the compound of formula (A) decreases ethanol stimulant effects presumable by enhancing NPY function in the brain.
Locomotor activity was measured with a Hamilton Kinder motor monitor infrared beam apparatus equipped with a SmartFrame cage rack throughout which basic movements were recorded. Experiments assessed the effects of the compound of formula (A) on ethanol-induced hyperactivity in 8-10-week old c57bl6/j mice and were conducted using a between subject design. Vehicle (10 ml/kg, i.p.) or the compound of formula (A) (10 mg/kg, i.p.) was administered 15 min prior to the beginning of the session. Thereafter, animals received an acute injection of either vehicle (10 ml/kg, i.p.) or ethanol (1 g/kg, i.p), then they were immediately placed in the apparatus and locomotor activity was evaluated for 15 min. Data were analyzed with two-way repeated ANOVA using Graph Pad.

NPY Y1 receptor = biological target: T1, NPY Y1 receptor (Homo sapiens, UniProt P25929); assay: CEREP binding panel, NPY Y1
T1 construct: CEREP
T1 sequence (P25929 1-384): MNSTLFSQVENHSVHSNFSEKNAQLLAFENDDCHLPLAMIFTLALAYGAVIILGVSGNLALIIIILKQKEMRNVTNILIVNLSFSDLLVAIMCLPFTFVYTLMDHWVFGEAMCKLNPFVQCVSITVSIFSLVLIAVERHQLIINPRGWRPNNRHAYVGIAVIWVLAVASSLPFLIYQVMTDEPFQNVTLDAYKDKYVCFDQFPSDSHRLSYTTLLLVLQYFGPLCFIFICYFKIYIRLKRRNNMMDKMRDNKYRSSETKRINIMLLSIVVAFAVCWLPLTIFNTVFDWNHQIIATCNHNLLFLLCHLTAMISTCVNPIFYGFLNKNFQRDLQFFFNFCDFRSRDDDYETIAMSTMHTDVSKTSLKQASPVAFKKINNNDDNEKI
Experimental: The selectivity of the compound of formula (A) was further evaluated in a large variety of ion-channels, transporters and receptor-binding assays including the Y1 receptor subtype. These assays were performed by CEREP (Celles L'Evescault, France; www.cere.com<http//www.cerea.com>). Selectivity vs the Y5 receptor subtype was evaluated as described in Bonaventure, P., D. Nepomuceno, C. Mazur, B. Lord, D. A. Rudolph, J. A. Jablonowski, N. I. Carruthers and T. W. Lovenberg, J Pharmacol Exp Ther. 2004, 308, 1130.
The compound of formula (A) was assayed by binding in a panel of 50 receptors, ion channels and transporters assays (CEREP) including adenosine (A1,A2A,A3), adrenergic (α1, α2, β1), angiotensin (AT1), dopamine (D1, D2), bradykinin (B2), cholecystokinin (CCKA), galanin (GAL2), melatonin ML1), muscarinic (M1, M2, M3), neurotensin (NTS), neurokinin (NK2, NK3), NPY (Y1, Y2) opiate (m, k, d), serotonin (5-HT1A, 5-HT1B, 5-HT2A, 5-HT3, 5-HT5A, 5-HT6, 5-HT7), somatostatin, vasopressin (V1a), norepinephrine transporter, dopamine transporter and ion channels (sodium, calcium, potassium and chloride).

inhibition at 1 µM (NPY Y1 receptor): 10%
Compound: CCN(CC)C(=O)C(c1ccccc1)N1CCN(c2ccc(NC(=O)c3ccccc3-c3cccnc3)cc2F)CC1 (racemic) [Cmpd (A), N-{4-[4-(Diethylcarbamoyl-phenyl-methyl)-piperazin-1-yl]-3-fluoro-phenyl}-2-pyridin-3-yl-benzamide]
effect on ethanol-induced hyperactivity ([1]; 15 min before ethanol 1 g/kg i.p.): significantly reduced ethanol hyperactivity
effect on locomotor activity by itself ([1]; no ethanol): did not change locomotor activity by itself
